Source: patent US7521254B2, “Quantitative measurements of concentration and solubility using Raman spectroscopy” (Transform Pharmaceuticals, Inc., priority 2004, dated 2009)

Test: Raman spectroscopic measurement of solute concentration in multi-component solvent mixtures
Format: physicochemical
Settings: prepared at 10 mg/mL
Protocol: FIGS. 1B and 1C depict calibration spectra for a two-component system (component A and component B) in which the solute from FIG. 1A is homogeneously distributed. FIG. 1B represents a calibration spectrum for single-component A while FIG. 1C represents a calibration spectrum for single-component B. The concentration of both single-component systems is 15 mg/mL. FIG. 1D depicts a Raman spectrum of the two-component system (A and B) with an unknown solute concentration. The ratio of A:B is 1:1 in the unknown sample. FIG. 1E is a representation of the Raman intensities at a particular frequency (v1) in both calibration spectra. A dotted line has been drawn between the calibration intensities and illustrates the expected Raman intensities at frequency v1 due to the solute molecule in mixtures of both components. […] In view of FIG. 1E, the ratio of components in the unknown sample can be used to determine the concentration of solute. […] A solute concentration above 15 mg/mL results in a Raman intensity greater than (IA+IB)/2 while a solute concentration below 15 mg/mL results in a Raman intensity less than (IA+IB)/2. Due to a directly proportional and linear relationship between Raman scattering intensity and concentration, values both above and below 15 mg/mL are easily calculated based on the measured Raman intensity of the unknown (multi-component) sample.
In another embodiment, automated software can be programmed to analyze the data. First, the software identifies the spectral peaks and intensities that are unique to the solute molecule by direct comparison with a solvent only (signature) spectrum. The various single-component (calibration) Raman spectra are then accessed and a calibration matrix is configured and saved from these single-component data. […] The concentration of solute in the multi-component system is calculated using a weighted average determination. For instance, the concentration (C) of a solute in a multi-component system can be calculated by using equation (1), C=a1c1+a2c2+a3c3+ . . . […]

| Structure (SMILES) | mean value for the concentration (1:1:1 ternary mixtures by volume (Table II), RSD 6.7 percent) [mg/mL] | mean value for the concentration (1:3 binary mixtures of excipients by volume (Table I), two trials, RSD 9.6 percent) [mg/mL] | mean value for the concentration (1:1 binary mixtures by volume (Table IV), RSD 9.7 percent) [mg/mL] |
| --- | --- | --- | --- |
| CC(=O)Nc1ccc(O)cc1 [Acetaminophen] | 9.48 | 10.18 | – |
| CC(=O)Oc1ccccc1C(=O)O [Acetylsalicylic acid] | – | – | 10.19 |
